Test results taken from ChEMBL document CHEMBL1671654, “In vivo activity of the pyrrolopyrazolyl-substituted oxazolidinone RWJ-416457” (Antimicrob Agents Chemother, 2009).
The source made the active and inactive calls. The rule behind the calls is not given here.

What was measured:
Staphylococcus aureus [1] = assay: Antibacterial activity against methicillin-susceptible Staphylococcus aureus ATCC 13709 infected in po dosed Swiss Webster mouse administered at 1 to 3 hrs post infection measured after 3 days; assay type: functional; settings: ATCC 13709, po
Staphylococcus aureus [2] = assay: Antibacterial activity against community-associated methicillin-resistant Staphylococcus aureus OC8525 infected in po dosed Swiss Webster mouse administered at 1 to 3 hrs post infection measured after 3 days; assay type: functional
Streptococcus pneumoniae [3] = assay: Antibacterial activity against penicillin-susceptible Streptococcus pneumoniae ATCC 6301 infected in po dosed Swiss Webster mouse administered at 1 to 3 hrs post infection measured after 3 days; assay type: functional; settings: ATCC 6301, po
Staphylococcus aureus [4] = assay: Antibacterial activity against methicillin-susceptible Staphylococcus aureus ATCC 13709 infected in sc dosed Swiss Webster mouse administered at 1 to 3 hrs post infection measured after 3 days; assay type: functional; settings: ATCC 13709, sc
Staphylococcus aureus [5] = assay: Antibacterial activity against community-associated methicillin-resistant Staphylococcus aureus OC8525 infected in sc dosed Swiss Webster mouse administered at 1 to 3 hrs post infection measured after 3 days; assay type: functional
Streptococcus pneumoniae [6] = assay: Antibacterial activity against penicillin-susceptible Streptococcus pneumoniae ATCC 6301 infected in sc dosed Swiss Webster mouse administered at 1 to 3 hrs post infection measured after 3 days; assay type: functional; settings: ATCC 6301, sc
Staphylococcus aureus [7] = assay: Antibacterial activity against methicillin-susceptible Staphylococcus aureus ATCC 13709 infected in iv dosed Swiss Webster mouse administered at 1 to 3 hrs post infection measured after 3 days; assay type: functional; settings: ATCC 13709, iv
Staphylococcus aureus [8] = assay: Antibacterial activity against community-associated methicillin-resistant Staphylococcus aureus OC8525 infected in iv dosed Swiss Webster mouse administered at 1 to 3 hrs post infection measured after 3 days; assay type: functional
Streptococcus pneumoniae [9] = assay: Antibacterial activity against penicillin-susceptible Streptococcus pneumoniae ATCC 6301 infected in iv dosed Swiss Webster mouse administered at 1 to 3 hrs post infection measured after 3 days; assay type: functional; settings: ATCC 6301, iv
Staphylococcus aureus [10] = assay: Bacteriostatic activity against methicillin-susceptible Staphylococcus aureus Smith ATCC 13709 infected in SKH1 mouse upto 320 mg/kg/day, po administered post infection measured after 48 hrs; assay type: functional, organism-based
Streptococcus pneumoniae [11] = assay: Antibacterial activity against penicillin-susceptible Streptococcus pneumoniae ATCC 6301 infected in po dosed CF-1 mouse administered at 24 hrs post infection measured after 48 hrs relative to Linezolid; assay type: functional; settings: Streptococcus pneumoniae, ATCC 6301, po
[12] = AUC (0 to 24 hrs) in CF-1 mouse at 2 mg/kg, iv; assay type: ADME, organism-based; design: time < 24 hr, dose 2 mg/kg, route intravenous; settings: plasma
[13] = AUC (0 to 24 hrs) in CF-1 mouse at 10 mg/kg, sc; assay type: ADME, organism-based; design: time < 24 hr, dose 10 mg/kg, route subcutaneous; settings: plasma
[14] = AUC (0 to 24 hrs) in CF-1 mouse at 10 mg/kg, po; assay type: ADME, organism-based; design: time < 24 hr, dose 10 mg/kg, route oral; settings: plasma
Mus musculus [15] = assay: fAUC (0 to 24 hrs) in CF-1 mouse at 2 mg/kg, iv; assay type: ADME, organism-based; design: dose 2 mg/kg, route intravenous; settings: in vivo
Mus musculus [16] = assay: fAUC (0 to 24 hrs) in CF-1 mouse at 10 mg/kg, sc; assay type: ADME, organism-based; design: dose 10 mg/kg, route subcutaneous; settings: in vivo
Mus musculus [17] = assay: fAUC (0 to 24 hrs) in CF-1 mouse at 10 mg/kg, po; assay type: ADME, organism-based; design: dose 10 mg/kg, route oral; settings: in vivo
[18] = Cmax in CF-1 mouse at 2 mg/kg, iv; assay type: ADME, organism-based; design: dose 2 mg/kg, route intravenous; settings: in vivo
[19] = Cmax in CF-1 mouse at 10 mg/kg, sc; assay type: ADME, organism-based; design: dose 10 mg/kg, route subcutaneous; settings: in vivo
[20] = Cmax in CF-1 mouse at 10 mg/kg, po; assay type: ADME, organism-based; design: dose 10 mg/kg, route oral; settings: in vivo
Mus musculus [21] = assay: fCmax in CF-1 mouse at 2 mg/kg, iv; assay type: ADME, organism-based; design: dose 2 mg/kg, route intravenous; settings: in vivo
Mus musculus [22] = assay: fCmax in CF-1 mouse at 10 mg/kg, sc; assay type: ADME, organism-based; design: dose 10 mg/kg, route subcutaneous; settings: in vivo
Mus musculus [23] = assay: fCmax in CF-1 mouse at 10 mg/kg, po; assay type: ADME, organism-based; design: dose 10 mg/kg, route oral; settings: in vivo
[24] = Tmax in CF-1 mouse serum at 10 mg/kg, sc; assay type: ADME, organism-based; design: dose 10 mg/kg, route subcutaneous
[25] = Tmax in CF-1 mouse serum at 10 mg/kg, po; assay type: ADME, organism-based; design: dose 10 mg/kg, route oral
[26] = Half life in CF-1 mouse at 2 mg/kg, iv; assay type: ADME, organism-based; design: dose 2 mg/kg, route intravenous; settings: in vivo
[27] = Half life in CF-1 mouse at 10 mg/kg, sc; assay type: ADME, organism-based; design: dose 10 mg/kg, route subcutaneous; settings: in vivo
[28] = Half life in CF-1 mouse at 10 mg/kg, po; assay type: ADME, organism-based; design: dose 10 mg/kg, route oral; settings: in vivo
[29] = Clearance in CF-1 mouse at 2 mg/kg, iv; assay type: ADME, organism-based; design: dose 2 mg/kg, route intravenous; settings: in vivo
[30] = Apparent oral clearance in CF-1 mouse at 10 mg/kg, sc; assay type: ADME, organism-based; design: dose 10 mg/kg, route oral; settings: in vivo
[31] = Apparent oral clearance in CF-1 mouse at 10 mg/kg, po; assay type: ADME, organism-based; design: dose 10 mg/kg, route oral; settings: in vivo
[32] = Ratio of fAUC (24 hrs) for Methicillin-susceptible Staphylococcus aureus ATCC 13709 infected po dosed mouse to MIC for Methicillin-susceptible Staphylococcus aureus ATCC 1370; assay type: functional
[33] = Ratio of fAUC (24 hrs) for Methicillin-susceptible Staphylococcus aureus ATCC 13709 infected sc dosed mouse to MIC for Methicillin-susceptible Staphylococcus aureus ATCC 1370; assay type: functional
[34] = Ratio of fAUC (24 hrs) for Methicillin-susceptible Staphylococcus aureus ATCC 13709 infected iv dosed mouse to MIC for Methicillin-susceptible Staphylococcus aureus ATCC 1370; assay type: functional
[35] = Ratio of fAUC (24 hrs) for community-associated methicillin-resistant Staphylococcus aureus OC8525 infected po dosed mouse to MIC for community-associated methicillin-resistant Staphylococcus aureus OC8525; assay type: functional
[36] = Ratio of fAUC (24 hrs) for community-associated methicillin-resistant Staphylococcus aureus OC8525 infected sc dosed mouse to MIC for community-associated methicillin-resistant Staphylococcus aureus OC8525; assay type: functional
[37] = Ratio of fAUC (24 hrs) for community-associated methicillin-resistant Staphylococcus aureus OC8525 infected iv dosed mouse to MIC for community-associated methicillin-resistant Staphylococcus aureus OC8525; assay type: functional
[38] = Ratio of fAUC (24 hrs) for penicillin-susceptible Streptococcus pneumoniae ATCC 6301 infected po dosed mouse to MIC for penicillin-susceptible Streptococcus pneumoniae ATCC 6301; assay type: functional
[39] = Ratio of fAUC (24 hrs) for penicillin-susceptible Streptococcus pneumoniae ATCC 6301 infected sc dosed mouse to MIC for penicillin-susceptible Streptococcus pneumoniae ATCC 6301; assay type: functional
[40] = Ratio of fAUC (24 hrs) for penicillin-susceptible Streptococcus pneumoniae ATCC 6301 infected iv dosed mouse to MIC for penicillin-susceptible Streptococcus pneumoniae ATCC 6301; assay type: functional

CC(=O)NC[C@H]1CN(c2ccc(N3CCOCC3)c(F)c2)C(=O)O1 [LINEZOLID]
ED50 (Staphylococcus aureus [1]): 6.4 mg/kg/day | ED50 (Staphylococcus aureus [2]): 5.1 mg/kg/day | ED50 (Streptococcus pneumoniae [3]): 14 mg/kg/day | ED50 (Staphylococcus aureus [4]): 7 mg/kg/day | ED50 (Staphylococcus aureus [5]): 3.7 mg/kg/day | ED50 (Streptococcus pneumoniae [6]): 20 mg/kg/day | ED50 (Staphylococcus aureus [7]): 6.3 mg/kg/day | ED50 (Staphylococcus aureus [8]): 8.5 mg/kg/day | ED50 (Streptococcus pneumoniae [9]): > 40 mg/kg/day | Activity (Staphylococcus aureus [10]): Active | ED50 (Streptococcus pneumoniae [11]): ≥ 14 mg/kg/day | AUC(0-t) at 24 h [12]: 2100 ng·h/mL | AUC(0-t) at 24 h [13]: 16000 ng·h/mL | AUC(0-t) at 24 h [14]: 19000 ng·h/mL | fAUC (Mus musculus [15]): 1400 ng·h/mL | fAUC (Mus musculus [16]): 11000 ng·h/mL | fAUC (Mus musculus [17]): 13000 ng·h/mL | Cmax [18]: 3300 ng/mL | Cmax [19]: 11000 ng/mL | Cmax [20]: 8900 ng/mL | fCmax (Mus musculus [21]): 2.3 µg/mL | fCmax (Mus musculus [22]): 7.1 µg/mL | fCmax (Mus musculus [23]): 6 µg/mL | Tmax [24]: ≤ 7.8 min | Tmax [25]: ≤ 7.8 min | half-life [26]: 30 min | half-life [27]: 48 min | half-life [28]: 84 min | clearance [29]: 15.7 mL/min/kg | CL/F [30]: 10.7 mL/min/kg | CL/F [31]: 8.67 mL/min/kg | fAUC/MIC [32]: 6.6 | fAUC/MIC [33]: 5.3 | fAUC/MIC [34]: 3.6 | fAUC/MIC [35]: 3.3 | fAUC/MIC [36]: 2.6 | fAUC/MIC [37]: 1.8 | fAUC/MIC [38]: 6.6 | fAUC/MIC [39]: 5.3 | fAUC/MIC [40]: 3.6
